One assay has as its target T1, Serotonin (5HT) reuptake (Rattus norvegicus, UniProt P31652).
T1 construct: synaptosomes are freshly isolated from areas of rat brain; from tissue; host or cells: rat brain synaptosomes (P2 fraction)
The experiment in a line: Serotonin (5HT) reuptake inhibition in rat brain synaptosomes (P2 fraction). In kind it is biochemical. Particulars: for inhibition at 10 µM: read-out: Serotonin reuptake, % inhibition [10 μM]. Put shortly: (§1)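 Freshly isolated rat brain synaptosomes (P2 fraction, Gray–Whittaker method) used for uptake; for NA uptake the particles came from hypothalamus of male rats.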

Another assay addresses human μ-opiate receptor (Homo sapiens, UniProt P35372). Description: Affinity for the human μ-opiate receptor ([3H]-naloxone displacement, SPA, CHO-K1 membrane preparation). It is filed as binding. Particulars: for inhibition at 1 µM: read-out: μ-Opioid receptor, % inhibition [1 μM]; for Ki: read-out: μ-Opioid receptor, Ki.
In the next assay the test system is mouse. The experiment in a line: In vivo studies of analgesia: tail-flick test in the mouse. To be noted: iv; for % maximum possible antinociceptive effect at 10 mg/kg: dose 10 mg/kg (i.v.), read-out: Activity % MPE. The source says:
In vivo Studies of Analgesia: Tail-flick Test in the Mouse
The mice were each placed individually into a test cage and the base of the tail was exposed to the focused heat ray of an electric lamp (tail-flick type 50/08/1.bc, Labtec, Dr. Hess). The intensity of the lamp was adjusted so that the time from switching on of the lamp to the sudden twitching away of the tail (latency of pain) in untreated mice was from 3 to 5 seconds. Before administration of the solutions comprising the compound according to the invention, or of the particular comparison solutions, the mice were pre-tested twice in the course of five minutes and the mean of these measurements was calculated as the pre-test mean.
The solutions of the compound of the general formula I according to the invention and the comparison solutions were then administered intravenously.
Pain measurement was carried out in each case 10, 20, 40 and 60 minutes following the intravenous administration. The analgesic activity was determined as the increase in the latency of pain (% of the maximum possible antinociceptive effect) according to the following formula: [(T1−T0)/(T2−T0)]×100 where time T0 is the latency before administration, time T1 is the latency after administration of the active ingredient combination and time T2 is the maximum exposure time (12 seconds).
The in-depth study of analgesic activity was carried out in the tail-flick test in the mouse, as described above.

Assay [1] addresses T2, Noradrenaline (NA) reuptake (Rattus norvegicus, UniProt Q63380).
T2 construct: synaptosomes are freshly isolated from areas of rat brain; from tissue; host or cells: rat hypothalamus synaptosomes (P2 fraction)
Description: Noradrenaline (NA) reuptake inhibition in rat brain synaptosomes (hypothalamus, P2 fraction). It is filed as biochemical. The method in brief: as §1

The mark [2] stands for this setting: read-out: Na reuptake, % inhibition [10 μM].
The mark [3] stands for this setting: 1 μM test substance, inhibition of specific [3H]-naloxone binding.
The mark [4] stands for this setting: read-out: NA reuptake, % inhibition [10 μM].

Structures can show the parent of a compound that is named as a salt. Where two headings read alike, the source gives them in different places.

Here are results for 23 compounds from patent US8058475B2, “Substituted cyclohexylmethyl compounds” (Gruenenthal GmbH, priority 2005, dated 2011).

Chain of human μ-opiate receptor (P35372 whole entry): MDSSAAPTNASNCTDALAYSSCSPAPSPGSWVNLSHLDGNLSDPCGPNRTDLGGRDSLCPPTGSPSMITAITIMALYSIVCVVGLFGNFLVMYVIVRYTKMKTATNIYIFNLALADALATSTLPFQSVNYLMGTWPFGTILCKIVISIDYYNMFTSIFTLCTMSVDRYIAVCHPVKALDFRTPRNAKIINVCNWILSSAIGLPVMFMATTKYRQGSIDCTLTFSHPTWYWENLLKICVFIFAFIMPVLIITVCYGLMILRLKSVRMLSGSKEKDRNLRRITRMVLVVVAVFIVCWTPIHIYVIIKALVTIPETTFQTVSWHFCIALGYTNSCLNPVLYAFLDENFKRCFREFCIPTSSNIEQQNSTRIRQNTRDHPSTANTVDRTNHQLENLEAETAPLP
T2 sequence (Q63380 1-617): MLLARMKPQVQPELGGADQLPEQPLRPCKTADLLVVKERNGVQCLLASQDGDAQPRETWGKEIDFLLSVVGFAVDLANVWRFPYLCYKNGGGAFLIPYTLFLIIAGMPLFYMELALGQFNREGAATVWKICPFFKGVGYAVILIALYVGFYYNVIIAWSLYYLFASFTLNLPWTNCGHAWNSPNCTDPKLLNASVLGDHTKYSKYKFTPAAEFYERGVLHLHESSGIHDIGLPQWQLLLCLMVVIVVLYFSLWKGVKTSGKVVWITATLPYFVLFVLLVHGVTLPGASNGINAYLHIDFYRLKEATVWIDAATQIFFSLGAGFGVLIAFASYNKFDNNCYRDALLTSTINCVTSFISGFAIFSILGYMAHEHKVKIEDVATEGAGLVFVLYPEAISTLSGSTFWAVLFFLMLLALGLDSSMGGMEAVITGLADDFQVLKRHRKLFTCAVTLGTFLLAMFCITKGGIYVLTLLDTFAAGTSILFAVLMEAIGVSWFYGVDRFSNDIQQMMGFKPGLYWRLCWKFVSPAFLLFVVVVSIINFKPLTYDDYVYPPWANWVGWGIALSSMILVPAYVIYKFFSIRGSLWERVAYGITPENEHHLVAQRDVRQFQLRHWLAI
T1 sequence (P31652 whole entry): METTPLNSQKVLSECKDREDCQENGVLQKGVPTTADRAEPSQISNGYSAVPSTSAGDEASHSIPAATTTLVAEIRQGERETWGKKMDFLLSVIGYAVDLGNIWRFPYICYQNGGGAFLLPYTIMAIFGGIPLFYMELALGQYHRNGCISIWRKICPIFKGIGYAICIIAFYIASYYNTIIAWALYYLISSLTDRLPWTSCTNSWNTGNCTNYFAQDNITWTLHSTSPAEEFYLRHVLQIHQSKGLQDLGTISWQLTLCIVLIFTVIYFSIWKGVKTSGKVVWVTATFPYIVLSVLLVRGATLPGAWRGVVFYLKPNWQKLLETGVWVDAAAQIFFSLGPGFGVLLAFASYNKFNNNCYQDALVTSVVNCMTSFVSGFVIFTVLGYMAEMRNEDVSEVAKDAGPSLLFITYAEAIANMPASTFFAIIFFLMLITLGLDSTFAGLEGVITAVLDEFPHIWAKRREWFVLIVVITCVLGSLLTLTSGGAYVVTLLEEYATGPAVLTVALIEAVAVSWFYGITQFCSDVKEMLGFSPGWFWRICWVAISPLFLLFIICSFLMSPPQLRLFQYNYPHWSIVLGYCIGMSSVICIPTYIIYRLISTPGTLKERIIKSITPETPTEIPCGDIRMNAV

Consider `CCCC(=O)N(Cc1ccccc1)C1CCC(C(c2ccccc2)N(C)C)CC1` (stereo not drawn) [compound 102, N-benzyl-N-(4-((dimethylamino)(phenyl)methyl)cyclohexyl)butyramide hydrochloride], for which the Ki (usually a measure of affinity in units of concentration, obtained from inhibition or displacement) on Serotonin (5HT) reuptake is 450 nM; at human μ-opiate receptor it was 1.5 nM; in assay [1], 130 nM. For the same compound, the inhibition – broadly, the drop in the measured response relative to a control, in per cent – at 10 µM at Serotonin (5HT) reuptake turned out to be 85%; in assay [1] (setting [2]), 92%. The inhibition at 1 µM at human μ-opiate receptor was 94%. For the same compound, the % maximum possible antinociceptive effect at 10 mg/kg with mouse worked out at 82%.
Regarding `CN(C)C(c1ccccc1)C1CCC(NC(=O)Nc2ccccc2)CC1.Cl` (stereo not drawn) [compound 78, 1-(4-((dimethylamino)(phenyl)methyl)cyclohexyl)-3-phenylurea hydrochloride], the figures for the Ki (at Serotonin (5HT) reuptake; at human μ-opiate receptor; in assay [1]) were 160 nM, 54 nM and 290 nM, respectively. Moreover, the inhibition at 10 µM at Serotonin (5HT) reuptake is 87%; in assay [1] (setting [4]), 98%. Moreover, the inhibition at 1 µM at human μ-opiate receptor (setting [3]) is 91%. Moreover, in the assay on mouse (head prints (4.64-21.5)), the ED50 (in general, the dose at which the effect has come halfway, by size or by number of responders) was 8.94 mg/kg.
With `CC(=O)N(CCCCc1ccccc1)C1CCC(C(c2ccccc2)N(C)C)CC1` (stereo not drawn) [compound 98, N-(4-((dimethylamino)(phenyl)methyl)cyclohexyl)-N-(4-phenylbutyl)-acetamide hydrochloride], the results for the Ki (at Serotonin (5HT) reuptake; in assay [1]) were 630 nM and 700 nM, respectively. Moreover, the inhibition at 10 µM is 74% on Serotonin (5HT) reuptake and 95% in assay [1] (setting [2]). Further, at human μ-opiate receptor, the inhibition at 1 µM was 104%. The % maximum possible antinociceptive effect at 10 mg/kg in the assay with mouse came to 100%.
The compound `CN(C)C(c1ccccc1)C1CCC(O)(Cc2ccc(F)cc2)CC1` (stereo not drawn) [compound 148, 4-((dimethylamino)(phenyl)methyl)-1-(4-fluorobenzyl)cyclohexanol hydrochloride] displayed a Ki on Serotonin (5HT) reuptake of 370 nM. Besides, the values for the inhibition at 10 µM (at Serotonin (5HT) reuptake; in assay [1] (setting [4])) were 90% and 97%, respectively. Further, the inhibition at 1 µM on human μ-opiate receptor (setting [3]) came to 91%. Also, the % maximum possible antinociceptive effect at 10 mg/kg in the assay with mouse came to 40%.
Consider `CN(C)C(c1ccccc1)C1CCC(NC(=O)NCc2ccccc2)CC1` (stereo not drawn) [compound 79, 1-benzyl-3-(4-((dimethylamino)(phenyl)methyl)cyclohexyl)urea], for which the values for the inhibitory constant (Ki) (at Serotonin (5HT) reuptake; on human μ-opiate receptor; in assay [1]) were 91 nM, 8.3 nM and 120 nM, respectively. The inhibition at 10 µM on Serotonin (5HT) reuptake was found to be 97%; in assay [1] (setting [4]), 96%. Besides, the inhibition at 1 µM at human μ-opiate receptor (setting [3]) is 103%. The % maximum possible antinociceptive effect at 10 mg/kg with mouse was found to be 76%.
As to `CN(C)C(CCc1ccccc1)C1CCC(O)CC1` (stereo not drawn) [compound 116, 4-(1-dimethylamino-3-phenyl-propyl)-cyclohexanol], the inhibition at 10 µM at Serotonin (5HT) reuptake was found to be 74%; in assay [1] (setting [4]), 95%. For the same compound, at human μ-opiate receptor (setting [3]), the inhibition at 1 µM worked out at 37%.
On to `CN(C)C(c1ccc(Cl)cc1)C1CCC(CCN)CC1` (stereo not drawn) [compound 66, 2-{4-[dimethylamino-(4-chlorophenyl)-methyl]-cyclohexyl}-ethylamine], for which the inhibition at 10 µM (on Serotonin (5HT) reuptake; in assay [1] (setting [4])) was 96% in each case. Moreover, the inhibition at 1 µM at human μ-opiate receptor (setting [3]) is 62%.
On to `CN(C)C(c1ccccc1)C1CCC(CO)CC1` (stereo not drawn) [compound 117, [4-(dimethylamino-phenyl-methyl)-cyclohexyl]-methanol], for which the inhibition at 10 µM on Serotonin (5HT) reuptake was 85%; in assay [1] (setting [4]), 82%. Besides, at human μ-opiate receptor (setting [3]), the inhibition at 1 µM came to 57%.
For `CN(C)C(c1ccccc1)C1CCC(CCO)CC1` (stereo not drawn) [compound 125, 2-[4-(dimethylamino-phenyl-methyl)-cyclohexyl]-ethanol], the inhibition at 10 µM on Serotonin (5HT) reuptake came out at 82%; in assay [1] (setting [4]) it was 86%. Also, at human μ-opiate receptor (setting [3]), the inhibition at 1 µM was determined as 62%.
Take `CN(C)C(c1ccc(F)cc1)C1CCC(CCO)CC1` (stereo not drawn) [compound 128, 2-{4-[dimethylamino-(4-fluorophenyl)-methyl]-cyclohexyl}-ethanol]: the inhibition at 10 µM is 84% at Serotonin (5HT) reuptake and 88% in assay [1] (setting [4]). For the same compound, at human μ-opiate receptor (setting [3]), the inhibition at 1 µM came out at 18%.
Consider `CN(C)C(c1cccc(F)c1)C1CCC(O)CC1` (stereo not drawn) [compound 113, 4-[dimethylamino-(3-fluorophenyl)-methyl]-cyclohexanol], for which the values for the inhibition at 10 µM (on Serotonin (5HT) reuptake; in assay [1] (setting [4])) were 83% and 82%, respectively. On human μ-opiate receptor (setting [3]), the inhibition at 1 µM was 46%.
In the same order, the values of `CN(C)C(CCc1ccccc1)C1CCC(CO)CC1` (stereo not drawn) [compound 122, [4-(1-dimethylamino-3-phenyl-propyl)-cyclohexyl]-methanol] are 77%, 97% and 32%.
Regarding `CCC(CC)C(=O)N(Cc1ccccc1)C1CCC(C(c2ccccc2)N(C)C)CC1` (stereo not drawn) [compound 101, N-benzyl-N-(4-((dimethylamino)(phenyl)methyl)cyclohexyl)-2-ethylbutanamide hydrochloride], the inhibition constant (Ki) turned out to be 880 nM at Serotonin (5HT) reuptake, 2.3 nM on human μ-opiate receptor and 670 nM in assay [1]. The inhibition at 10 µM came out at 81% on Serotonin (5HT) reuptake and 86% in assay [1] (setting [2]). Besides, the inhibition at 1 µM at human μ-opiate receptor stood at 101%.
With `CN(C)C(c1ccc(F)cc1)C1CCC(CO)CC1` (stereo not drawn) [compound 118, {4-[dimethylamino-(4-fluorophenyl)-methyl]-cyclohexyl}-methanol], the values for the inhibition at 10 µM (on Serotonin (5HT) reuptake; in assay [1] (setting [4])) were 90% and 91%, respectively. In addition, the inhibition at 1 µM on human μ-opiate receptor (setting [3]) stood at 33%.
For the compound `COc1ccc(OC)c(C2(O)CCC(C(c3ccccc3)N(C)C)CC2)c1` (stereo not drawn) [compound 149, 1-(2,5-Dimethoxyphenyl)-4-((dimethylamino)(phenyl)methyl)cyclohexanol hydrochloride], the inhibition at 10 µM was determined as 85% at Serotonin (5HT) reuptake and 75% in assay [1] (setting [4]). The inhibition at 1 µM at human μ-opiate receptor (setting [3]) is 82%.
In the same order, the values of `CN(C)C(c1cccc(F)c1)C1CCC(C=O)CC1` (stereo not drawn) [compound 34, 4-[Dimethylamino-(3-fluorophenyl)-methyl]-cyclohexane-carbaldehyde] are 87%, 87% and 34%.
Turning to `CN(C)C(c1ccccc1)C1CCC(OCc2ccccc2)CC1` (stereo not drawn) [compound 144, 4-(benzyloxy)cyclohexyl)-N,N-dimethyl(phenyl)methanamine hydrochloride], the inhibition at 10 µM is 80% on Serotonin (5HT) reuptake and 75% in assay [1] (setting [4]). Also, on human μ-opiate receptor (setting [3]), the inhibition at 1 µM turned out to be 81%. Moreover, on human μ-opiate receptor, the inhibition constant Ki stood at 120 nM.
For the compound `CCOC(=O)CCC1CCC(C(c2ccccc2)N(C)C)CC1` (stereo not drawn) [compound 133, 3-[4-(dimethylamino-phenyl-methyl)-cyclohexyl]-propionic acid ethyl ester], the figures for the Ki on Serotonin (5HT) reuptake and at human μ-opiate receptor were 99 nM and 96 nM, respectively. Moreover, the inhibition at 10 µM on Serotonin (5HT) reuptake stood at 89%; in assay [1] (setting [4]), 87%. In addition, the inhibition at 1 µM on human μ-opiate receptor (setting [3]) is 81%.
As for `CCOC(=O)C=C1CCC(C(c2ccccc2)N(C)C)CC1` (stereo not drawn) [compound 123, [4-(dimethylamino-phenyl-methyl)-cyclohexylidene]-acetic acid ethyl ester], the figures for the inhibition at 10 µM (at Serotonin (5HT) reuptake; in assay [1] (setting [4])) were 92% and 66%, respectively. The inhibition at 1 µM on human μ-opiate receptor (setting [3]) was 75%. On human μ-opiate receptor, the Ki was 190 nM.
Take `CN(C)C(c1cccs1)C1CCC(CC=O)CC1` (stereo not drawn) [compound 67, {4-[Dimethylamino-thiophen-2-yl-methyl]-cyclohexyl}-acetaldehyde]: the inhibition at 10 µM on Serotonin (5HT) reuptake was 95%; in assay [1] (setting [4]), 86%. In addition, on human μ-opiate receptor, the Ki stood at 200 nM.
Regarding `CCC(CC)C(=O)NC1CCC(C(c2ccccc2)N(C)C)CC1` (stereo not drawn) [compound 93, N-(4-((dimethylamino)(phenyl)methyl)cyclohexyl)-2-ethylbutanamide hydrochloride], the Ki on Serotonin (5HT) reuptake came to 660 nM; at human μ-opiate receptor it was 94 nM. Moreover, the inhibition at 10 µM on Serotonin (5HT) reuptake is 75%; in assay [1] (setting [2]), 48%. The inhibition at 1 µM at human μ-opiate receptor amounted to 94%.
For `CN(C)C(c1ccccc1)C1CCC(NC(=O)Nc2ccc(F)cc2F)CC1` (stereo not drawn) [compound 74, 1-(2,4-difluorophenyl)-3-(4-((dimethylamino)(phenyl)methyl)cyclohexyl)urea hydrochloride], the Ki on Serotonin (5HT) reuptake is 120 nM; on human μ-opiate receptor it was 160 nM; in assay [1], 220 nM. Also, the inhibition at 10 µM at Serotonin (5HT) reuptake came out at 86%; in assay [1] (setting [4]) it was 93%. Besides, at human μ-opiate receptor (setting [3]), the inhibition at 1 µM stood at 88%.
In the case of `COc1ccc(NC2CCC(C(c3ccccc3)N(C)C)CC2)cc1` (stereo not drawn) [compound 89, N-(4-((dimethylamino)(phenyl)methyl)cyclohexyl)-4-methoxybenzenamine hydrochloride], the inhibition at 10 µM came to 73% on Serotonin (5HT) reuptake and 85% in assay [1] (setting [4]). Besides, on human μ-opiate receptor (setting [3]), the inhibition at 1 µM was 95%. In addition, the Ki on human μ-opiate receptor worked out at 59 nM.
